Data as given in PMC7797697 (Theranostics, 2021).

Key:
[1] = test system: RGS2 promoter; assay: qChIP of H3 acetylation; type: cell-based; details: MDA-MB-231, T-47D and 4T1 cells
Description: Briefly, the cells were cross-linked with 1% formaldehyde, sonicated, pre-cleared, and incubated with 4 μg of Ace-H3 antibody or IgG, which was followed by the addition of Dynabeads Protein G. Next, the beads were washed with high- and low-salt-concentration buffers, and DNA was eluted and purified using the QIAquick PCR Purification Kit. The amount of the DNA template was analyzed by qPCR using primers specific for five promoter regions.

[2] = test system: breast cancer cells; assay: Transwell cell invasion assay; type: cell-based, human; details: matrigel transwell, P < 0.05
Description: Transwell chamber filters (BD) were coated with Matrigel diluted (1:10) in serum-free medium. […] After treatment, cells were digested and suspended in serum-free media. Cells (8,000 cells per well) were seeded into the upper chamber of the transwell chambers, and the chambers were transferred into 24-well plates containing 500 μl culture medium per well. After 20 h of incubation, cells in the upper chamber were fixed with 4% formaldehyde, washed with PBS, and stained with crystal violet for half an hour. Images of invasive cells were captured using a light microscope.

[3] = test system: MDA-MB-231 xenografts; assay: MDA-MB-231 xenograft anti-tumor activity; type: in vivo, nude mice; details: i.v., 50 mg/kg
Description: (§1) MDA-MB-231 (5 × 10^6 cells) were inoculated into the left abdominal mammary fat pad of 6-week-old female nude mice, and tumor growth was monitored. […] After four weeks of treatment, all mice were sacrificed according to ethical guidelines. Tumors were excised and analyzed. Tumor volume was measured using a Vernier caliper and calculated according to the following formula: π/6 × length × width^2. All animal handling and procedures were approved by the Capital Medical University Institutional Animal Care. Tumor and adjacent tissues were rapidly fixed in 4% paraformaldehyde (Sigma-Aldrich) for at least 24 h and embedded in paraffin for microscopic examination. From the prepared paraffin blocks, 5-μm thick sections were cut and stained with hematoxylin and eosin (H&E) for light microscopic observation. Sections were processed as per standard protocols using 3,3'-diaminobenzidine (DAB) staining. All human and mouse tissues were collected according to protocols approved by the Ethics Committee of Capital Medical University, and informed consent was obtained from all patients.

[4] = test system: MDA-MB-231 and primary breast tumor cells; assay: EdU incorporation assay; type: cell-based, human; details: compared to DMSO treatment
Text: After that, DNA proliferation was detected using an EdU assay kit according to the manufacturer's instructions (RiboBio, Guangzhou, China).

[5] = test system: Gαq, PLCβ3, PMCA1 and PMCA4b in MDA-MB-231 cells; assay: Expression of calcium influx and efflux markers (Western blot, RT-qPCR); type: cell-based, human
Description: Reverse transcription was performed using the RevertAid First Strand cDNA Synthesis Kit ([…]) according to the manufacturer's instructions. The primers for the detection of target mRNA are shown in Table S2. β-actin was used as an internal reference. The relative expression of target genes was calculated by the 2^-ΔΔCt method.

[6] = test system: Caco-2; assay: CCK8 assay IC50; type: cell-based; details: Homo sapiens, Caco-2, colon cancer, 72 h
Description: (§2) Cell viability was then detected using a CCK8 assay (MedChemExpress, USA) according to the manufacturer's instructions.
(§3) Statistical analyses of all data were performed using GraphPad Prism (version 8.0, Graph Pad Software Inc., San Diego, CA, USA). All the data were analyzed by Student's t-test or one-way ANOVA. The Z-Score was chosen to evaluate the results and experimental deviation. Quantitative data are presented as the mean ± SD. The asterisk (*) denotes statistically significant difference (P < 0.05). IC50 was calculated using a four-parameter fit with variable slope in GraphPad Prism.

[7] = test system: SH-SY5Y; assay: CCK8 assay IC50; type: cell-based; details: Homo sapiens, neuroblastoma, 72 h
Description: as §2, §3

[8] = test system: SMMC-7721; assay: CCK8 assay IC50; type: cell-based; details: Homo sapiens, SMMC-7721, liver cancer, 72 h
Description: as §2, §3

[9] = test system: HeLa; assay: CCK8 assay IC50; type: cell-based; details: Homo sapiens, cervical cancer, 72 h
Description: as §2, §3

[10] = test system: A549; assay: CCK8 assay IC50; type: cell-based; details: Homo sapiens, A549, lung cancer, 72 h
Description: as §2, §3

[11] = test system: HCT-15; assay: CCK8 assay IC50; type: cell-based; details: Homo sapiens, HCT-15, colon cancer, 72 h
Description: as §2, §3

[12] = test system: PANC-1; assay: CCK8 assay IC50; type: cell-based; details: Homo sapiens, PANC-1, pancreatic cancer, 72 h
Description: as §2, §3

[13] = test system: MCF-7; assay: CCK8 assay IC50; type: cell-based; details: Homo sapiens, MCF7; MCF-7, 72 h, CCK8, value of the text
Description: as §2, §3

[14] = test system: T-47D; assay: CCK8 assay IC50; type: cell-based; details: Homo sapiens, T47D, breast cancer, 72 h
Description: as §2, §3

[15] = test system: PC-3; assay: CCK8 assay IC50; type: cell-based; details: Homo sapiens, PC-3, prostatic cancer, 72 h
Description: as §2, §3

[16] = Pathological examination (H&E) of main organs; type: in vivo, nude mice; details: i.v., 50 mg/kg, every other day for four weeks
Description: as §1

[17] = test system: MDA-MB-231, T-47D, and primary breast tumor cells; assay: Wound-healing assay; type: cell-based, human; details: compared with DMSO treatment, P < 0.05
Description: Tumor cell migration was determined by the wound healing assay. […] After treatment, a straight scratch was made onto the cell monolayer using a pipette tip. The cells were washed with PBS three times to remove the floating cells, and the cells were cultured in serum-free medium for 24 h. Cell wound edges were captured using a light microscope.

[18] = test system: MDA-MB-231, T-47D, and primary breast tumor cells; assay: Colony formation assay; type: cell-based, human; details: crystal violet staining
Description: The colony-formation ability of MDA-MB-231 and T-47D cells were measured by the clonogenic assay. […] After treatment, cells were digested and suspended in culture medium at a density of 5 × 10^3 cells/ml. Cells (2,000 cells per well) were seeded into 6-well plates and cultured for two weeks. The, cells were fixed with 4% formaldehyde and washed with phosphate-buffered saline (PBS) and stained with crystal violet for half an hour. Images of colonies were captured using a light microscope.

[19] = test system: MDA-MB-231; assay: CCK8 assay IC50; type: cell-based, human; details: Homo sapiens; MDA-MB-231, 72 h, CCK8, value of the text
Description: as §2, §3

[20] = test system: HUVEC; assay: CCK8 assay IC50; type: cell-based, human; details: 72 h, normal cells
Description: as §2, §3

CN(C)Cc1c(C(=O)NCCOc2ccc(C(=O)NO)cc2)oc2ccccc12 [PCI-24781]
H3 acetylation at RGS2 promoter regions (qChIP) [1]: strong binding to RGS2 #2 and #3 promoter regions of H3 acetylation | invasive capacity [2]: significant reduction in the invasive capacity | Ki-67 staining of tumor tissues [3]: inhibited tumor proliferation | tumor growth inhibition ([3]; every other day for four weeks, compared to control group, P < 0.0001): 74.6% | RGS2 IHC staining in tumor tissues ([3]; versus control group): more abundant and more intensely stained | cell proliferation (EdU incorporation) [4]: decreased proliferation | expression levels of PMCA1 and PMCA4b ([5]; MDA-MB-231, RT-qPCR): not affected | expression levels of Gαq and PLCβ3 ([5]; MDA-MB-231, Western blot and RT-qPCR): significantly decreased | IC50 [6]: 2000 nM | IC50 [7]: 6000 nM | IC50 [8]: 12000 nM | IC50 [9]: 1820 nM | IC50 [10]: 1160 nM | IC50 [11]: 33000 nM | IC50 [12]: 3000 nM | IC50 [13]: 896 nM | IC50 [14]: 2630 nM | IC50 [15]: 1220 nM | histological changes in the main organs (heart, liver, lung, spleen, and kidney) [16]: did not exhibit serious histological changes | wound closure (cell migration) [17]: significant delay | colony formation [18]: decreased colony formation | IC50 [19]: 663 nM | IC50 ([20]; Homo sapiens): 4200 nM | IC50 [20]: 4170 nM
